Results as given in paper PMC3024946, “Hydroxyproline-containing collagen analogs trigger the release and activation of collagen-sequestered proMMP-2 by competition with prodomain-derived peptide P33-42” (Fibrogenesis & Tissue Repair, 2011).

Test system: ActMMP-2
Assay: Solid-phase binding of [125I]-actMMP-2 to immobilized collagens/peptides (microwells)
Parameters: species or system human
Details: ActMMP-2, 2 ng/well; coated wells; 4°C, 2 h; residual radioactivity; mean ± SD, at least five experiments in triplicate
Procedure: Human recombinant proMMPs and in vitro activated MMPs were obtained from Invitek and were labeled with the [^125I]-Bolton-Hunter reagent according to the manufacturer's instructions (PerkinElmer, Rodgau, Germany) before the buffer was exchanged for phosphate-buffered saline (PBS) with 0.05% (vol/vol) Tween 20 by gel filtration as described previously. Specific radioactivity for [^125I]-MMPs was 3-9 × 10^4 cpm/ng. Precipitation with 10% (wt/vol) trichloroacetic acid and 200 μg of BSA recovered 96% to 100% of protein-bound radioactivity. Aliquots of labeled MMPs were frozen and stored at -80°C. The activity and integrity were checked by substrate gel zymography using SDS-PAGE and autoradiography with overnight exposure to Biomax MS film (Kodak, Stuttgart, Germany) (Figure 2A).
Native human CI, CIII and CVI were purified from skin tissue and placenta. The CI single chains α1(I) and α2(I) were obtained and modified as described previously. To prepare defined fragments, 2 mg of α1(I) were dissolved in 1 ml of 70% (vol/vol) formic acid at room temperature, the tubes were flushed with nitrogen for 10 min, and then 2 mg of CB were added. After incubation for 4 h at 37°C, free CB was neutralized and the samples were lyophilized. The peptides CB3, CB6, CB7 and CB8 were separated from the reaction mixture by gel filtration followed by ion-exchange chromatography. The resulting peptides were characterized by amino acid analysis and SDS-PAGE [45, 46]. The CB peptides had the following melting temperatures: CB3, 23.9°C; CB6, 26.7°C; CB7, 28.1°C; and CB8, 28.0°C [31].
The following collagen analogs and control peptides were synthesized as described previously: (GPO)10, H-Gly-Cys-Hyp-(Gly-Pro-Hyp)10-Gly-Cys-Hyp-Gly-NH2; (GPP)10, H-Gly-Cys-Pro-(Gly-Pro-Pro)10-Gly-Cys-Pro-Gly-NH2; and GAP, H-Gly-Ala-Cys-(Gly-Ala-Pro)5-Gly-Phe-Hyp-Gly-Glu-Arg-(Gly-Ala-Pro)5-NH2. Peptides (POG)10, (PPG)10 and (POG)5 were purchased from Peptide International (Louisville, KY, USA). Spontaneous triple-helix assembly was approved by polarimetry over a 10-cm path length at 1°C/min in 10 mM phosphate buffer, pH 7.4. At 5 mg/ml, midpoints of melting curves occurred at 82.3 ± 1.4°C for (GPO)10 and at 45.8 ± 0.8°C for (GPP)10. […] Graphs were calculated from the primary data using a custom fitting program written by D.A. Slatter (Department of Biochemistry, University of Cambridge, Cambridge, UK [48]) to model different possible transitions. All collagens, CI derivatives and peptides were stored in stock solutions of 2 mg/ml in 150 mM acetic acid at -20°C.
ProMMP-2 and proMMP-9 or actMMP-2 and actMMP-9 were bound to nitrocellulose and polystyrene-immobilized native collagens, CI chains, CB peptides or structural analogs. Serial dilutions of collagens or CI derivatives in 150 mM acetic acid were dotted at 3 × 3 μl to a nitrocellulose membrane with high protein-binding capacity (GE Healthcare, Munich, Germany). Air-dried membranes were blocked with PBS and 0.3% (vol/vol) Tween 20 overnight at 4°C, washed three times, and incubated with 1 ng/ml [^125I]-pro- and actMMP-2 and pro- and actMMP-9 in PBS and 0.3% (vol/vol) Tween 20 for 2 h at room temperature. Membranes were washed again and air-dried, and bound MMP was monitored by autoradiography. In parallel, polystyrene microtiter plates (Dynex, Chantilly, VA, USA) were coated with collagen proteins and peptides. Here 2 μg/well or 200 ng/well proteins and peptides or BSA as control were immobilized in 100 μl of 50 mM ammonium bicarbonate buffer, pH 9.6, by overnight incubation at 4°C. Immobilization efficacies were 20% to 45% of total proteins. Wells were washed three times with PBS, and nonspecific binding sites were blocked with PBS and 0.05% (vol/vol) Tween 20 for 1 h at room temperature. All incubation steps were performed with 2 ng of [^125I]-MMPs at 4°C for 2 h. […]

## H-Gly-Cys-Hyp-(Gly-Pro-Hyp)10-Gly-Cys-Hyp-Gly-NH2 [(GPO)10, triple-helical Hyp-containing collagen analog]
  Binding of [125I]-MMPs: 6.2 ± 3.1 % of maximum control

## H-Gly-Cys-Pro-(Gly-Pro-Pro)10-Gly-Cys-Pro-Gly-NH2 [(GPP)10, Triple-helical Gly-Pro-Pro (GPP)10, devoid of Hyp]
  Binding of [125I]-MMPs: 2.1 ± 0.7 % of maximum control
